SMILES strings stand for the structures.

Holding throughout (format): in vivo
Holding throughout (conditions): 5 mg/kg oral gavage

In one test the target is FAAH (Mus musculus (Mouse), UniProt O08914). Nature of the test: Mouse brain proteomes from inhibitor treated mice (oral gavage, sacrifice 4 h after administration, ABPP analysis), FAAH. Put shortly:
(§1)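 Percent inhibition in brain tissue measured by ABPP 4 h after a single oral gavage dose (5 mg/kg) to wild-type C57Bl/6J mice; vehicle was, for example, PEG400/Ethanol/PBS at 7/2/1.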

Another test addresses ABHD6 (Mus musculus (Mouse), UniProt Q8R2Y0). As to the kind of experiment: Mouse brain proteomes from inhibitor treated mice (oral gavage, sacrifice 4 h after administration, ABPP analysis), ABHD6. Put shortly:
as §1

The target in a further test is MAGL (Mus musculus (Mouse), UniProt O35678). Nature of the test: Mouse brain proteomes from inhibitor treated mice (oral gavage, sacrifice 4 h after administration, ABPP analysis). The procedure: Preparation of Mouse Brain Proteomes from Inhibitor Treated Mice.
Inhibitors were administered to wild-type C57Bl/6J by oral gavage in a vehicle, e.g. PEG400/Ethanol/PBS (7/2/1). Each animal was sacrificed 4 h following administration and brain proteomes were prepared and analyzed according to previously established methods (See Niphakis, M. J., et al. (2011) ACS Chem. Neurosci. and Long, J. Z., et al. Nat. Chem. Biol. 5:37-44). Data from this assay is shown in Table 2 (% inhibition at 5 mg/kg).

MAGL, sequence (O35678 whole entry): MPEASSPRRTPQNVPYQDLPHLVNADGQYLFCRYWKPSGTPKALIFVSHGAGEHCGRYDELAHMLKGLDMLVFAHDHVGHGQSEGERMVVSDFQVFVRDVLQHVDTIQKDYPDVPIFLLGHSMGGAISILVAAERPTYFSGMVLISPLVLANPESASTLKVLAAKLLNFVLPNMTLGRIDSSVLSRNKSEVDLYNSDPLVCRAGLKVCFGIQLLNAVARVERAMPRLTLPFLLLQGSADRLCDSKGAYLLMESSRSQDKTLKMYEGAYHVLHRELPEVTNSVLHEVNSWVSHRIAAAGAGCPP
FAAH, sequence (O08914 whole entry): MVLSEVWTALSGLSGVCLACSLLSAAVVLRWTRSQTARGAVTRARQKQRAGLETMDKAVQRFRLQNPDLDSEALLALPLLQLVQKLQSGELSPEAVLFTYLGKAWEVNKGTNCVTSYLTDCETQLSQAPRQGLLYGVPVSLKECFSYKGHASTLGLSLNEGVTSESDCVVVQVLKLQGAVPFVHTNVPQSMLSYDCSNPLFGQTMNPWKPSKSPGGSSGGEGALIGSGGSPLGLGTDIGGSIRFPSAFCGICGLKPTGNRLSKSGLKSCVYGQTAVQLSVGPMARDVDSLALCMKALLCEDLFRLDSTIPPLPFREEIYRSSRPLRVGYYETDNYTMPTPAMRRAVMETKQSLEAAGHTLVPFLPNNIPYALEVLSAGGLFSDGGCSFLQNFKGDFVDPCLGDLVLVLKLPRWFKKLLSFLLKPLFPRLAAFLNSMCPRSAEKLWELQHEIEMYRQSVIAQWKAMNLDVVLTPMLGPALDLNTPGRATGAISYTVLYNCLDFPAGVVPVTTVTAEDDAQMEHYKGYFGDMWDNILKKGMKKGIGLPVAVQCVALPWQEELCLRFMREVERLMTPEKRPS
ABHD6, sequence (Q8R2Y0 whole entry): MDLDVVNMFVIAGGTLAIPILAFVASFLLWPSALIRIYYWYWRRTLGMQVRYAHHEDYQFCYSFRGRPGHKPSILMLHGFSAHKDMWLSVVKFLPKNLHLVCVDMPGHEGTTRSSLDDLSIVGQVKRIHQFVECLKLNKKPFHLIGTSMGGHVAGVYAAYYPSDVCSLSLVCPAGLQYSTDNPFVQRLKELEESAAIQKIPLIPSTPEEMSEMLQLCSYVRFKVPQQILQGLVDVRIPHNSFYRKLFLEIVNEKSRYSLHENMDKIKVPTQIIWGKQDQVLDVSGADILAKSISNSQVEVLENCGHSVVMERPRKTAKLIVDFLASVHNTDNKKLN

On to `COc1cccc(CN2CCCC23CCN(C(=O)OC(C(F)(F)F)C(F)(F)F)CC3)c1Cl` [Example 7, 1,1,1,3,3,3-Hexafluoropropan-2-yl 1-(2-chloro-3-methoxybenzyl)-1,8-diazaspiro[4.5]decane-8-carboxylate], for which, at FAAH, the “FAAH % Inh 5 mg/kg (mouse)” value is recorded as “### (### is ≥ 75%)”. Also, on ABHD6, the “ABHD6 % Inh 5 mg/kg (mouse)” value is “# (# is < 25%)”. On MAGL, the “MAGL % Inh 5 mg/kg (mouse)” value was “### (### is ≥ 75%)”.

In the case of `CC(=O)NC1CCN(c2cc(C(F)(F)F)ccc2CN2CCCC23CCN(C(=O)OC(C(F)(F)F)C(F)(F)F)CC3)CC1` [Example 93, 1,1,1,3,3,3-Hexafluoropropan-2-yl 1-(2-(4-acetamidopiperidin-1-yl)-4-(trifluoromethyl)benzyl)-1,8-diazaspiro[4.5]decane-8-carboxylate], at FAAH, the “FAAH % Inh 5 mg/kg (mouse)” value is reported as “# (# is < 25%)”. For the same molecule, on ABHD6, the “ABHD6 % Inh 5 mg/kg (mouse)” value is given as “# (# is < 25%)”. In addition, the “MAGL % Inh 5 mg/kg (mouse)” value on MAGL is “### (### is ≥ 75%)”.

`Cc1c(CN2CCCC23CCN(C(=O)OC(C(F)(F)F)C(F)(F)F)CC3)cccc1N1CC2CCC(C1)O2` [Example 86, 1,1,1,3,3,3-Hexafluoropropan-2-yl 1-(3-(8-oxa-3-azabicyclo[3.2.1]octan-3-yl)-2-methylbenzyl)-1,8-diazaspiro[4.5]decane-8-carboxylate]: the “FAAH % Inh 5 mg/kg (mouse)” value at FAAH is reported as “# (# is < 25%)”. In addition, the “ABHD6 % Inh 5 mg/kg (mouse)” value at ABHD6 is listed as “# (# is < 25%)”. In addition, the “MAGL % Inh 5 mg/kg (mouse)” value on MAGL is “### (### is ≥ 75%)”.

In the case of `CS(=O)(=O)N1CCN(c2cc(C(F)(F)F)ccc2CN2CCCC23CCN(C(=O)OC(C(F)(F)F)C(F)(F)F)CC3)CC1` [Example 89, 1,1,1,3,3,3-Hexafluoropropan-2-yl 1-(2-(4-(methylsulfonyl)piperazin-1-yl)-4-(trifluoromethyl)benzyl)-1,8-diazaspiro[4.5]decane-8-carboxylate], the “FAAH % Inh 5 mg/kg (mouse)” value on FAAH is “# (# is < 25%)”. Moreover, the “ABHD6 % Inh 5 mg/kg (mouse)” value on ABHD6 is “# (# is < 25%)”. At MAGL, the “MAGL % Inh 5 mg/kg (mouse)” value was “# (# is < 25%)”.

With `Cc1c(CN2CCCC23CCN(C(=O)OC(C(F)(F)F)C(F)(F)F)CC3)cccc1N1CCCCC1` [Example 84, 1,1,1,3,3,3-Hexafluoropropan-2-yl 1-(2-methyl-3-(piperidin-1-yl)benzyl)-1,8-diazaspiro[4.5]decane-8-carboxylate], the “FAAH % Inh 5 mg/kg (mouse)” value on FAAH was “# (# is < 25%)”. At ABHD6, the “ABHD6 % Inh 5 mg/kg (mouse)” value is listed as “# (# is < 25%)”. In addition, on MAGL, the “MAGL % Inh 5 mg/kg (mouse)” value is listed as “### (### is ≥ 75%)”.

Take `CS(=O)(=O)NC1CCN(c2cc(C(F)(F)F)ccc2CN2CCCC23CCN(C(=O)OC(C(F)(F)F)C(F)(F)F)CC3)CC1` [Example 94, 1,1,1,3,3,3-Hexafluoropropan-2-yl 1-(2-(4-(methylsulfonamido)piperidin-1-yl)-4-(trifluoromethyl)benzyl)-1,8-diazaspiro[4.5]decane-8-carboxylate]: the “FAAH % Inh 5 mg/kg (mouse)” value on FAAH is given as “# (# is < 25%)”. Moreover, at ABHD6, the “ABHD6 % Inh 5 mg/kg (mouse)” value is “# (# is < 25%)”. Moreover, the “MAGL % Inh 5 mg/kg (mouse)” value at MAGL is “# (# is < 25%)”.

In the case of `O=C(OC(C(F)(F)F)C(F)(F)F)N1CCC2(CCCN2Cc2cccc(N3CCOCC3)c2Cl)CC1` [Example 79, 1,1,1,3,3,3-Hexafluoropropan-2-yl 1-(2-chloro-3-morpholinobenzyl)-1,8-diazaspiro[4.5]decane-8-carboxylate], the “FAAH % Inh 5 mg/kg (mouse)” value on FAAH is “# (# is < 25%)”. The “ABHD6 % Inh 5 mg/kg (mouse)” value on ABHD6 was “# (# is < 25%)”. The “MAGL % Inh 5 mg/kg (mouse)” value at MAGL is “### (### is ≥ 75%)”.

For the molecule `CC1(C)CC2(CCN(C(=O)OC(C(F)(F)F)C(F)(F)F)CC2)CN1Cc1ccc(C(F)(F)F)cc1N1CCC2(CCOCC2)C1` [Example 52, 1,1,1,3,3,3-Hexafluoropropan-2-yl 2-(2-(8-oxa-2-azaspiro[4.5]decan-2-yl)-4-(trifluoromethyl)benzyl)-3,3-dimethyl-2,8-diazaspiro[4.5]decane-8-carboxylate], at FAAH, the “FAAH % Inh 5 mg/kg (mouse)” value is “# (# is < 25%)”. For the same molecule, the “ABHD6 % Inh 5 mg/kg (mouse)” value on ABHD6 was “# (# is < 25%)”. For the same molecule, the “MAGL % Inh 5 mg/kg (mouse)” value at MAGL is recorded as “# (# is < 25%)”.
